Measurements reported in patent US7270820B2, “CD4+ T-lymphocyte-specific hepatitis C virus epitopes” (Immusystems GmbH, priority 2002, dated 2007).

Test system: fresh peripheral blood mononuclear cells (PBMC) / HCV-specific CD4+ T-lymphocytes
Test: Lymphocyte proliferation assay (3H-thymidine incorporation) of PBMC stimulated with HCV peptides
Type: cell-based, human (patients with acute hepatitis C)
Details: for IF (impact factor): peptide 10 μg/ml, 5 days, calculated from n1 (reactions with 3<SI<6), n2 (SI≧6) and m tests, m≧15
Description: To solve the task, a unique patient collective was identified, namely patients with acute hepatitis C who reach a lasting or at least temporary virus elimination in over 50% of cases. In order to test all possible CD4+ T-cell epitopes, the whole virus was covered with overlapping synthetic peptides from 15 to 20 amino acids long. A standardised lymphocyte proliferation assay was used as the test system. In order to determine both the degree of conservation between various virus sub-types and also the binding promiscuity as regards the relevant genetic background of the patients, a formula was defined based on the frequency of detection of an epitope and the strength of the immune reaction in question.
The stimulation index (SI) is normally calculated from the raw data of a proliferation assay and represents the multiplication factor of the measured sample in comparison with the control. An SI of 3 is regarded as significant.
A special patient collective was chosen and examined for HCV specific CD4+ T-cell epitopes relevant for the healing of the disease. The patient collective, namely patients with acute hepatitis C, is difficult to identify, since, on the one hand, they occur with a frequency of approx. 1:100,000 in the German population and, on the other hand, only T-lymphocytes were tested in the acute phase of the disease. This means a considerable limitation in the number of usable samples. Finally, within this patient collective, only patients were considered who were able to clear the virus spontaneously or to control it temporarily (this is only approx. 60% of the patients with acute hepatitis C), since only here has the immune system successfully taken action against the virus.
As the test system, the so-called “proliferation assay” was carried out according to the following protocol: After density gradient centrifugation on Ficoll gradients of heparinised blood, the fresh peripheral blood mononuclear cells (PBMC) were isolated and suspended in a culture medium (RPMI1640, Gibco). 50 μl of this cell suspension (concentration of 1×10^6 cells per ml) were placed on sterile 96-well culture plates. The cells were stimulated by the addition of the peptides. The final concentration of the peptides was 10 μg/ml. The cell culture plates were cultivated over 5 days at 37° C. and 5% CO2, then mixed with ^3H-thymidine and the incorporation of the radioactive ^3H was measured as a measure of the cell stimulation.
In our studies, only peptide reactions were regarded as significant whose stimulation index (SI) was greater than 3 (3× higher compared with the controls, or the irrelevant peptides).
The impact factor (IF) is based on a points system which not only uses the frequency of relevant reactions, i.e. stimulation index (SI) greater than 3, as normal, but also takes into account the strength of these reactions.
[formula] where • n1 is the sum of the reactions with 3<SI<6, • n2 is the sum of the reactions with SI≧6 and • m is the number of tests against the peptide in question, whereby m≧15.

Sequence | IF (impact factor) | other results
ARSLTPCTCGSSDLY (Hepatitis C virus) [EP002] | 27.6 | –
CPCQVPAPEFFTEVDGVRLH [EP011] | 23.3 | –
CSGSWLRDVWDWICTVLTDF [EP008] | 23.3 | –
DVVCCSMSYTWTGALITPCA [EP017] | 23.3 | –
EVTRVGDFHYVTGMTTDNVK [EP010] | 21.9 | –
FTEVDGVRLHRYAPACKPLL [EP012] | 28.1 | –
GAQITGHVKNGSMRIVGPKT [EP009] | 23.3 | –
GPRLGVRATRKTSER (Hepatitis C virus) [EP001] | 24.0 | –
MWKCLIRLKPTLHGP (Hepatitis C virus) [EP004] | 24.1 | –
PLLESWKDPDYVPPVVHGCP [EP016] | 26.7 | –
REVSVAAEILRKSRKFPPAM (Hepatitis C virus) [EP015] | 25.0 | –
SSDLYLVTRHADVIP (Hepatitis C virus) [EP003] | 23.2 | –
SSSASQLSAPSLKATCTTHH [EP014] | 23.3 | –
THYVPESDAAARVTQILSSL [EP006] | 26.7 | –
TITQLLKRLHQWINEDCSTP [EP007] | 43.8 | n1, sum of the reactions with 3<SI<6 (of 16 independent tests): 4; n2, sum of the reactions with SI≧6 (of 16 independent tests): 2; impact factor (worked example in text, m=16 tests): 43.75
TSMLTDPSHITAETAKRRLA [EP013] | 26.7 | –
VLVDILAGYGAGVAG (Hepatitis C virus) [EP005] | 24.1 | –
